Results: patent publication US20240043448A1, “Small Molecule Inhibitors of KRAS G12C Mutant” (Merck Sharp & Dohme LLC, priority 2019, published 2024)
Like-named read-outs stand apart in the source and are kept apart here.

Columns and labels:
[1] = biological target: Biotinylated KRAS G12C protein (Homo sapiens (Human), UniProt P01116, C118S/C51S/C80L/G12C); experiment: SOS-catalyzed nucleotide exchange assay (TR-FRET); type: biochemical; settings: in vitro apparent potency; preincubation time of 60 minutes prior to addition of SOS
Biotinylated KRAS G12C protein, sequence (P01116 other isoform, or with tags, fused parts or gaps, stated change not applied): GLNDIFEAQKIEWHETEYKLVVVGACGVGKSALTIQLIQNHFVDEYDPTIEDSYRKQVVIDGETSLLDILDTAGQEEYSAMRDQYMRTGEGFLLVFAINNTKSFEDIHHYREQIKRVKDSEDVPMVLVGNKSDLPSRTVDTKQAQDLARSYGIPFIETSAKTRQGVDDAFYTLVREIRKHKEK
Summary of the method: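 Biotinylated KRAS G12C preloaded with Bodipy-GDP and Tb-streptavidin, then incubated with compound (10-point, 3-fold series) for 60 min at RT. Exchange started with SOS and GTP for 60 min. TR-FRET 520/495 ratio normalised to DMSO and saturating-inhibitor controls; four-parameter fit.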

phospho-ERK = experiment: Cellular phospho-ERK assay; type: cell-based; settings: NCI-H358 cells, 2 hour incubation, ratio of p-Erk vs total Erk, read-out: IC50 (nM) pERK (Cell)
Summary of the method: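 NCI-H358 cells seeded overnight, then exposed to compound dose-response titrations for 2 hours at 37° C. in RPMI. Lysates assayed by AlphaLISA SureFire Ultra multiplex for p-Erk and total Erk; ratio p-Erk/total Erk used as readout, IC50 from 4-parameter logistic fit.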

Row | SMILES | IC50 [1] | IC50 (phospho-ERK; Homo sapiens, NCI-H358, 2 h) | IC50 (phospho-ERK)
1 | C=CC(=O)N1C[C@H](C)N(c2nc(=O)n3c4nc(c(Cl)cc24)-c2c(F)cccc2OCCCc2ccnc(C(C)C)c2-3)C[C@H]1C [Example 63, 20-chloro-2-[(2S,5R)-2,5-dimethyl-4-(prop-2-enoyl)piperazin-1-yl]-17-fluoro-6-(propan-2-yl)-11,12-dihydro-4H,10H-1,18-(ethanediylidene)pyrido[4,3-e]pyrimido[1,6-g][1,7,9] benzoxadiazacyclodo-decin-4-one] | 3.6 nM | 2 nM | 
2 | C=CC(=O)N1CC2CCC1CN2c1nc(=O)n2c3nc(c(F)cc13)-c1c(F)cccc1OCCCc1ccnc(C(C)C)c1-2 (stereo not drawn) [Example 106, 17,20-difluoro-4-oxo-6-(propan-2-yl)-2-[5-(prop-2-enoyl)-2,5-diazabicyclo[2.2.2]octan-2-yl]-11,12-dihydro-4H,10H-1,18-ethenopyrido[4,3-e]pyrimido[1,6-g][1,7,9] benzoxadiazacyclododecin-4-one] | 2550 nM |  | 5620 nM
3 | C=CC(=O)N1CCN(c2nc(=O)n3c4nc(c(F)cc24)-c2c(F)cccc2C(=O)NCCCc2ccnc(C(C)C)c2-3)[C@H](C)C1 [Example 19b, 18,21-difluoro-2-[(2S)-2-methyl-4-(prop-2-enoyl)piperazin-1-yl]-6-(propan-2-yl)-10,11,12,13-tetrahydro-1,19-ethenopyrido[3,4-e]pyrimido[6,1-c][2,4,10]benzotriazacyclotridecine-4,14-dione] | 4520 nM |  | > 30000 nM
4 | C=CC(=O)N1C[C@H](C)N(c2nc(=O)n3c4nc(c(F)cc24)-c2c(F)cccc2OCCCc2ccnc(C(C)C)c2-3)C[C@H]1C [Example 75, 2-[(2S,5R)-2,5-dimethyl-4-(prop-2-enoyl)piperazin-1-yl]-17,20-difluoro-6-(propan-2-yl)-11,12-dihydro-4H,10H-1,18-ethenopyrido[4,3-e]pyrimido[1,6-g][1,7,9]benzoxadiazacyclododecin-4-one] | 1.7 nM | 8.8 nM | 
5 | C=CC(=O)N1C[C@H](C)N(c2nc(=O)n3c4nc(c(F)cc24)-c2c(F)cccc2OCC2(CCc4ccnc(C(C)C)c4-3)CC2)C[C@H]1C [Example 60, 2′-[(2S,5R)-2,5-dimethyl-4-(prop-2-enoyl)piperazin-1-yl]-18′,21′-difluoro-6′-(propan-2-yl)-10′,11′-dihydro-4′H,13′H-spiro[cyclopropane-1,12′-[14]oxa[3,5,7,20]tetraaza[1,19] (ethanediylidene)pyrido[4,3-f]pyrimido[1,6-h][1,8,10]benzoxadiazacyclotri-decin]-4′-one] | 1.5 nM | 17 nM | 
6 | C=CC(=O)N1C[C@H](C)N(c2nc(=O)n3c4nc(c(F)cc24)-c2cc(F)cc4cnn(c24)CCCCc2ccnc(C(C)C)c2-3)C[C@H]1C [Example 108, 2-[(2S,5R)-2,5-dimethyl-4-(prop-2-enoyl)piperazin-1-yl]-18,22-difluoro-6-(propan-2-yl)-10,11,12,13-tetrahydro-4H-1,20-(ethanediylidene)pyrido [4′,3′:12,13]pyrimido[1′,6′:1,2][1,3,7] triazacyclotridecino[5,6,7-hi]indazol-4-one] | 20 nM | 68 nM | 
7 | C=CC(=O)N1C[C@H](C)N(c2nc(=O)n3c4nc(c(F)cc24)-c2cccc(C(F)(F)F)c2OCCOc2ccnc(C(C)C)c2-3)C[C@H]1C [Example 116, 2-[(2S,5R)-2,5-dimethyl-4-(prop-2-enoyl)piperazin-1-yl]-20-fluoro-6-(propan-2-yl)-14-(trifluoromethyl)-11,12-dihydro-4H-1,18-ethenopyrido[4,3-e]pyrimido[1,6-g][1,4,7,9]benzodioxadiazacyclododecin-4-one] | 1100 nM |  | 2730 nM
8 | C=CC(=O)N1C[C@H](C)N(c2nc(=O)n3c4nc(c(F)cc24)-c2c(F)ccc(F)c2OC[C@H](C)Oc2ccnc(C(C)C)c2-3)C[C@H]1C [Example 94, (11S)-2-[(2S,5R)-2,5-dimethyl-4-(prop-2-enoyl)piperazin-1-yl]-14,17,20-trifluoro-11-methyl-6-(propan-2-yl)-11,12-dihydro-4H-1,18-ethenopyrido[4,3-e]pyrimido[1,6-g][1,4,7,9]benzodioxadiazacyclododecin-4-one] | 3.4 nM |  | 42 nM
9 | C=CC(=O)N1CCN(c2nc(=O)n3c4nc(c(F)cc24)-c2cccc4cnn(c24)CCCCc2ccnc(C(C)C)c2-3)[C@@H](C)C1 [Example 6, 22-fluoro-2-[(2S)-2-methyl-4-(prop-2-enoyl)piperazin-1-yl]-6-(propan-2-yl)-10,11,12,13-tetrahydro-4H-1,20-(ethanediylidene)-pyrido[4′,3′:12,13]pyrimido-[1′,6′:1,2][1,3,7]triazacyclo-tridecino[5,6,7-hi]indazol-4-one] | 9.2 nM | 45 nM | 
10 | C=CC(=O)N1CCN(c2nc(=O)n3c4nc(c(F)cc24)-c2cccc4cnn(c24)CCCc2ccnc(C(C)C)c2-3)[C@@H](C)C1 (single isomer, unassigned) [Example 117] | 17 nM |  | 44 nM

Further lines, results first:

Row | IC50 [1] | IC50 (phospho-ERK; Homo sapiens, NCI-H358, 2 h) | IC50 (phospho-ERK) | SMILES
11 | 1410 nM |  | 3830 nM | C=CC(=O)N1CCN(c2nc(=O)n3c4nc(c(Cl)cc24)-c2c(F)cccc2OCCc2ccccc2-3)[C@@H](C)C1 [Example 9, 19-chloro-16-fluoro-2-[(2S)-2-methyl-4-(prop-2-enoyl)piperazin-1-yl]-10,11-dihydro-4H-1,17-ethenodibenzo[b,h]pyrimido[6,1-f][1,5,7]oxadiazacycloundecin-4-one]
12 | 2.4 nM | 18 nM |  | C=CC(=O)N1C[C@H](C)N(c2nc(=O)n3c4nc(c(F)cc24)-c2c(ccc(F)c2F)OCCCc2ccnc(C(C)C)c2-3)C[C@H]1C [Example 78, 2-[(2S,5R)-2,5-dimethyl-4-(prop-2-enoyl)piperazin-1-yl]-16,17,20-trifluoro-6-(propan-2-yl)-11,12-dihydro-4H,10H-1,18-ethenopyrido[4,3-e]pyrimido[1,6-g][1,7,9]benzoxadiazacyclododecin-4-one]
13 | 0.74 nM | 14 nM |  | C=CC(=O)N1C[C@H](C)N(c2nc(=O)n3c4nc(c(F)cc24)-c2c(ccc(F)c2F)OCC(F)(F)CCc2ncnc(C(C)C)c2-3)C[C@H]1C [Example 58, 2-[(2S,5R)-2,5-dimethyl-4-(prop-2-enoyl)piperazin-1-yl]-12,12,17,18,21-pentafluoro-6-(propan-2-yl)-10,11,12,13-tetrahydro-4H-1,19-(ethanediylidene)dipyrimido [4,5-f:1′,6′-h][1,8,10] benzoxadiazacyclo-tridecin-4-one]
14 | 237 nM |  | 1020 nM | C=CC(=O)N1CC(C)N(c2nc(=O)n3c4nc(c(F)cc24)-c2c(F)cccc2COCCc2ccnc(C(C)C)c2-3)CC1C [Example 115, 2-[(2S,5R)-2,5-dimethyl-4-(prop-2-enoyl)piperazin-1-yl]-17,20-difluoro-6-(propan-2-yl)-10,11-dihydro-1,18-ethenopyrido[3,4-e]pyrimido[6,1-c][9,2,4]benzoxadiazacyclododecin-4(13H)-one]
15 | 107 nM | 847 nM |  | C=CC(=O)N1CCN(c2nc(=O)n3c4nc(c(F)cc24)-c2c(F)cccc2OCCCc2ccnc(C(C)C)c2-3)C[C@@H]1CC [Example 103, 2-[(3S)-3-ethyl-4-(prop-2-enoyl)piperazin-1-yl]-17,20-difluoro-6-(propan-2-yl)-11,12-dihydro-4H,10H-1,18-ethenopyrido[4,3-e]pyrimido[1,6-g][1,7,9] benzoxadiazacyclododecin-4-one]
